In patent publication US6177415A, “Bacteriohopanetetrol and related compounds useful for modulation of lipoxygenase activity and anti-inflammatory applications” (The United States of America as represented by the …, priority 1997, dated 2001):
Read-outs that look alike come from different tables or passages of the source.

Columns and labels:
[1] = system: Arachidonic acid-induced inflammation (mouse ear); test: Topical anti-inflammatory test against arachidonic acid-induced inflammation (mouse ear swelling); assay type: in vivo, mouse (ICR, male); conditions: for % Inhibition of swelling: 1 hr A.A.; for % Inhibition of swelling / Ear Thickness Measurement, Left Ear (No A.A.) / Ear Thickness Measurement, Right Ear (1 hr. A.A.) / Swelling (R - L): n = 5/group; for Ear Thickness Measurement, Left Ear (No A.A.) / Ear Thickness Measurement, Right Ear (1 hr. A.A.) / Swelling (R - L): mean ± SEM
Procedure: The anti-inflammatory studies were carried out utilizing a topical model with arachidonic acid as the inflammation-inducing compound. 15-LO initiates the metabolic pathway leading to the formation of the lipoxins by converting arachidonic acid to […] (15-HPETE). Lipoxins may share some of the bioactivity associated with leukotrienes, the end-product associated with the 5-LO arachidonic acid metabolic pathway. A solution of arachidonic acid was applied to the surface of a mouse ear with the test substance (THBH) […]. Ear swelling was measured after an additional 60 minutes as an index of inflammation. For all test procedures, % inhibition was calculated according to the formula
where Ic is the increase in ear thickness (mm) in control mice and It is the increase in ear thickness in treated mice (see Example 5).
Arachidonic acid (2 mg in 20 μl acetone:pyridine:water) in a ratio of 7:2:1) was applied topically to the anterior and posterior surfaces of the right ear of mice 30 min following similar application of hopanoid or control (20 μl). Swelling of the ear was then measured by a Dyer model micrometer gauge after 60 min as an index of inflammation. For all test procedures, % inhibition was calculated according to formula (1). Five mice/dose level of test substance were used with negative and positive control groups run concurrently. The positive control was indomethacin.

[2] = target: T1, Prostaglandin H Synthase (Ovis aries, UniProt P05979); test: Prostaglandin H synthase (cyclooxygenase) assay (oxygen consumption); assay type: biochemical
T1 construct: purchased Oxford Biomedical Research Co., Oxford, Mich
T1 sequence (P05979 25-600): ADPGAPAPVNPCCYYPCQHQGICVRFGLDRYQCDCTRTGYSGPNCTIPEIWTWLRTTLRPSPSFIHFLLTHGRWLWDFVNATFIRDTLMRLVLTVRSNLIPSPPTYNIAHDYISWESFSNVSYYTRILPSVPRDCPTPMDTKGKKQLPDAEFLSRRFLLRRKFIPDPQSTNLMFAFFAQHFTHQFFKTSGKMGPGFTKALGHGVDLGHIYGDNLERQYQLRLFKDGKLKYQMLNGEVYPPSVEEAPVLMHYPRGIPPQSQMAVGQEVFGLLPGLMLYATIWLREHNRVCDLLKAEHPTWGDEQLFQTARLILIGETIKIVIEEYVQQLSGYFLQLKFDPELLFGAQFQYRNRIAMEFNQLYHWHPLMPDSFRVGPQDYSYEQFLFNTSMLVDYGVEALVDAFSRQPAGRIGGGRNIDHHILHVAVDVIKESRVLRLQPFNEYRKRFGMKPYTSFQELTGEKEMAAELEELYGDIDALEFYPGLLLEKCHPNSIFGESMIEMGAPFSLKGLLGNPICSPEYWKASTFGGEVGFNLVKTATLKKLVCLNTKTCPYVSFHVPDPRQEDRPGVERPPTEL
Procedure: Prostaglandin H synthase was obtained from Oxford Biomedical Research Co., Oxford, Mich. The reaction mixture (1.80 ml) consisted of 0.5 mM phenol, 1 μM hematin, enzyme (3.75 μg in 5 μl), 25 μl of inhibitor dissolved in ethanol, and potassium phosphate buffer (0.1 M, pH 7.8), and was preincubated for 3 min. The reaction was started by injecting 15 μl of arachidonic acid dissolved in ethanol, yielding a final concentration of 100 μM arachidonic acid in the reaction vessel. The disappearance of dissolved oxygen was monitored as described in Example 2. The assay system was checked by measuring the inhibition in indomethacin, a known inhibitor of prostaglandin H synthase.

[3] = target: T2, Human 5-LO (Homo sapiens, UniProt P09917); test: Assay of recombinant human 5-lipoxygenase (oxygen consumption); assay type: biochemical
T2 construct: purchased Oxford Biomedical Research Co., Oxford, Mich
T2 sequence (P09917 1-674): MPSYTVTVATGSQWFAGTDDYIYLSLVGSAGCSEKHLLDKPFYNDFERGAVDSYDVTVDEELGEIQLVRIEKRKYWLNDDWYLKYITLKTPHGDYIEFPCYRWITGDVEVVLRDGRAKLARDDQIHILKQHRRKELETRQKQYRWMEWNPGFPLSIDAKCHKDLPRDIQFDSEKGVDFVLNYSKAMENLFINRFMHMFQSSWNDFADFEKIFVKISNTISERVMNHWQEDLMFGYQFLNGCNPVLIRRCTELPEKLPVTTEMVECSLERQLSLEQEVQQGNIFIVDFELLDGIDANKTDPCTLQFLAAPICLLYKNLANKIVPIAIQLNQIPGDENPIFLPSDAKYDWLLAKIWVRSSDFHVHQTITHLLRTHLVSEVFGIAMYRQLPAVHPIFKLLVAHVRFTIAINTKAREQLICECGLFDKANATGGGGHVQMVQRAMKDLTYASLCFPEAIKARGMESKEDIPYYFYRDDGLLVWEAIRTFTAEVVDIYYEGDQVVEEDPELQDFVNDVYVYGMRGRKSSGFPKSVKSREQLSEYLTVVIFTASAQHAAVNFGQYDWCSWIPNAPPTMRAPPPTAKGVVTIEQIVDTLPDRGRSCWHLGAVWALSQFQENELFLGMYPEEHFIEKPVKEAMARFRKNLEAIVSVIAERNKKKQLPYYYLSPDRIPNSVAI
Procedure: The reaction mixture (1.80 ml) consisted of 0.25 mM CaCl2, 0.13 mM ATP, 7 μl of phosphatidylcholine (12 μg/2 ml ethanol), 25 μl of inhibitor dissolved in ethanol, and Tris-HCl buffer, 50 mM, pH 7.4, and preincubated for 3 min. The reaction was started by injecting 5 μl of arachidonic acid (3.8 mg/5 ml ethanol) yielding a final arachidonic acid concentration of 4.5 μM in the reaction mixture. The rate of disappearance of dissolved oxygen was monitored with an oxygen electrode at 37° C., as described in Example 2. The O2 concentration in an air-saturated aqueous solution at 37° C. was calculated to be 0.185 mM.

[4] = target: T3, Soybean 15-LO (Glycine max, UniProt P08170); test: Assay of soybean 15-lipoxygenase (oxygen consumption, Clark oxygen electrode); assay type: biochemical
T3 construct: purchased Sigma Chemical Co. (St. Louis, Mo.) Type V
T3 sequence (P08170 1-839): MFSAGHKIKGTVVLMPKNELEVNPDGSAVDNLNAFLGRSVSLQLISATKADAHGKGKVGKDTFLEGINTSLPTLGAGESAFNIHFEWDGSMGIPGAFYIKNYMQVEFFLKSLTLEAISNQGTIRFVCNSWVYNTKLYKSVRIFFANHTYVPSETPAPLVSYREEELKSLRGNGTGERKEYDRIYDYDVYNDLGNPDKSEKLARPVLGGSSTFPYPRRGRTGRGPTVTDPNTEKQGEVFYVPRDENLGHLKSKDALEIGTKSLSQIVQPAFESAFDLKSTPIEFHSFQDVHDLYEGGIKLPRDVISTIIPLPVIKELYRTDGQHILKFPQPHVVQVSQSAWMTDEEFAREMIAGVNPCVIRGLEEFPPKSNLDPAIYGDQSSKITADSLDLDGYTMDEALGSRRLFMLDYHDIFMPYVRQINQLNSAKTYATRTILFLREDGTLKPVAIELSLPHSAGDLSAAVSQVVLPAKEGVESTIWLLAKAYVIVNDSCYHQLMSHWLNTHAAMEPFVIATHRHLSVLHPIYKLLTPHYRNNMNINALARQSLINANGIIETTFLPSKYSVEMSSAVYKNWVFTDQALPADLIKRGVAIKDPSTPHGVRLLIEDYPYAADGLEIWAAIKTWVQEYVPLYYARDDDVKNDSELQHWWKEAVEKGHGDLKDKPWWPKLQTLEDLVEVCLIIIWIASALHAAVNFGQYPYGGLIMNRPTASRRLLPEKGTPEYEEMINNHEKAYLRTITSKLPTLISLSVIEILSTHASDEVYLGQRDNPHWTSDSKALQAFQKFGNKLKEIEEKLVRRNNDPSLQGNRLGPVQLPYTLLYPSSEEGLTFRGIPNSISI
Procedure: Initial screening was carried out on three hopanoids isolated from Z. mobilis (FIGS. 1,b,c,d). These compounds were purified as described and screened for their ability to inhibit three enzymes known for their activity in the metabolism of arachidonic acid. These enzymes, soybean 15-lipoxygenase (15-LO), human 5-lipoxygenase (5-LO) and prostaglandin H synthase (Table I), are known to be inhibited by most non-steroidal anti-inflammatory drugs (Parthasarathy and Rankin. 1992. Prog. Lipid. Res. vol. 31, p. 127). Soybean 15-LO was inhibited by one of the hopanoids, tetrahydroxybacteriohopane (THBH), with an IC50 of about 10 μM. […] The two other natural hopanoid compounds, THBH-GA and THBH-Et, were also evaluated for their effect on soybean 15-LO.
Soybean 15 LO (Type V) was obtained from Sigma Chemical Co. (St. Louis, Mo.). The reaction mixture (1.8 ml) consisted of 0.1 M borate buffer, pH 9.0, 5 μl (0.5 μg, 315 units) of soybean 15-LO dissolved in borate buffer, and 25 μl of inhibitor dissolved in ethanol, and was preincubated for 3 min. The reaction was started by injecting 100 μl of substrate mixture (prepared fresh daily and consisting of 1.0 mg arachidonic acid sonicated in 2.3 ml 0.1 M borate buffer, pH 9.0) yielding a final concentration of 50.9 μM arachidonic acid in the reaction vessel. The rate of disappearance of dissolved oxygen was monitored with a Clark Oxygen Electrode (Yellow Springs Instruments, Yellow Springs, Ohio) with the temperature controlled at 25° C., according to the method described by Breton et al. (1993. Prostaalandins, Leucotrienes, and Fatty Acids. vol. 49, p. 929, herein incorporated by reference). The O2 concentration in an air-saturated aqueous solution at 25° C., was calculated to be 0.24 mM. The assay system was checked by measuring the inhibition of phenidone, a known inhibitor of soybean 15-LO. Each potential inhibitor was tested at each of the listed concentrations at least three times and enzyme activities presented are the means ± standard deviations, reported as relative activities (calculated assuming that the activity in the minus-inhibitor control=100). The actual activities of the controls (in units of μM O2 consumed/min/mg protein) are also presented as a footnote to Table I.

[5] = control = 100, read-out: Enzyme Activity (Relative ± S.D.)
[6] = 25 μM, control = 100, read-out: Enzyme Activity (Relative ± S.D.)
[7] = read-out: Enzyme Activity (Relative ± S.D.)
[8] = 50 μM, control = 100, read-out: Enzyme Activity (Relative ± S.D.)

In the case of `COc1ccc2c(c1)c(CC(=O)O)c(C)n2C(=O)c1ccc(Cl)cc1` [Indomethacin, indomethacin, reference compound], the “% Inhibition of swelling” value ([1]; 3 mg/ear) is reported as 56%, the “Ear Thickness Measurement, Left Ear (No A.A.)” value ([1]; 3 mg/ear) is reported as 22.2 ± 0.5 × 0.01 mm and the “Ear Thickness Measurement, Right Ear (1 hr. A.A.)” value ([1]; 3 mg/ear) is reported as 29.4 ± 1.5 × 0.01 mm. The “Swelling (R - L)” value ([1]; 3 mg/ear) was 7.2 ± 1.5 × 0.01 mm and the remaining activity at 2.4 µM ([2]; 2.4 μM, control = 100, read-out: Enzyme Activity (Relative ± S.D.)) was 7 ± 2%.

Molecule `O=C1CCN(c2ccccc2)N1` [Phenidone, phenidone, reference compound] has a remaining activity at 25 µM [3, 5] of 55 ± 2% and a remaining activity at 25 µM [4, 6] of 34 ± 4%.

For `CC(CCC(O)C(O)C(O)COC1OC(CO)C(O)C(O)C1N)C1CCC2(C)C1CCC1(C)C2CCC2C3(C)CCCC(C)(C)C3CCC21C` (stereo not shown) [THBH-GA, tetrahydroxybacteriohopane glucosamine], the “inhibition or stimulation of soybean 15-LO (in words)” value (shortened to “inhibition or stimulation”) [4] was “stimulated enzyme activity”, the remaining activity at 25 µM [4, 7] was 172 ± 24% and the remaining activity at 50 µM [4, 7] was 188 ± 14%.

With `C[C@H](CC[C@@H](O)[C@@H](O)[C@@H](O)CO)[C@H]1CC[C@]2(C)[C@H]3CC[C@@H]4[C@@]5(C)CCCC(C)(C)[C@@H]5CC[C@@]4(C)[C@]3(C)CC[C@@H]12` [THBH, tetrahydroxybacteriohopane] the “% Inhibition of swelling” value ([1]; 10 mg/ear) was 41%, the “Ear Thickness Measurement, Left Ear (No A.A.)” value ([1]; 10 mg/ear) was 22.0 ± 0.7 × 0.01 mm and the “Ear Thickness Measurement, Right Ear (1 hr. A.A.)” value ([1]; 10 mg/ear) was 31.6 ± 1.5 × 0.01 mm. The “Swelling (R - L)” value ([1]; 10 mg/ear) was 9.6 ± 1.1 × 0.01 mm, the “effect on arachidonic acid-caused swelling (in words)” value ([1]; mouse ear) was “significantly affects swelling caused by the application of arachidonic acid” and the remaining activity at 25 µM [2, 6] was 102 ± 3%. The remaining activity at 50 µM [2, 8] was 103 ± 2%, the “inhibition of prostaglandin H synthase (in words)” value ([2]; 25 or 50 μM) was “not significantly inhibited” and the remaining activity at 25 µM [3, 5] was 98 ± 2%. For the same molecule, the remaining activity at 50 µM [3, 8] was 97 ± 1%, the “inhibition of human 5-LO (in words)” value ([3]; 25 or 50 μM) was “not significantly inhibited” and the IC50 [4] was roughly 10 µM. For the same molecule, the “selectivity for 15-LO over 5-LO and prostaglandin H synthase (in words)” value [4] was “selectively inhibits 15-LO without inhibiting either 5-LO or prostaglandin H synthase”, the remaining activity at 6.75 µM [4, 7] was 68 ± 5% and the remaining activity at 12.5 µM [4, 7] was 48 ± 9%. It also gave a remaining activity at 25 µM [4, 7] of 15 ± 6%, a remaining activity at 50 µM [4, 7] of 4 ± 3% and a remaining activity at 100 µM [4, 7] of 11 ± 2%.

`CC(CCC(O)C(O)C(O)COC1C(N)C(O)C(O)C1(O)CO)C1CCC2(C)C1CCC1(C)C2CCC2C3(C)CCCC(C)(C)C3CCC21C` (stereo not shown) [THBH-Et, tetrahydroxybacteriohopane ether] was tested, and the “inhibition or stimulation” value [4] was “stimulated enzyme activity”, the remaining activity at 25 µM [4, 7] was 151 ± 10% and the remaining activity at 50 µM [4, 7] was 250 ± 38%.

In the case of `CC(=O)OCC(OC(C)=O)C(OC(C)=O)C(CCC(C)C1CCC2(C)C1CCC1(C)C2CCC2C3(C)CCCC(C)(C)C3CCC21C)OC(C)=O` (stereo not shown) [THBH-Acet], the “inhibition or stimulation” value [4] is reported as “destroyed its ability to inhibit this 15-LO”, the remaining activity at 25 µM [4, 7] is reported as 89 ± 11% and the remaining activity at 50 µM [4, 7] is reported as 114 ± 17%.
